From US20080155704A1, “Methods and Compositions for Determining in vivo Activity of BiP” (King's College London, priority 2006, published 2008)

Experiments:
[1] = system: human peripheral blood mononuclear cells; test: Human PBMC injected intraperitoneally into SCID mice; assay type: in vivo, human cells in SCID mice
Experimental: Human peripheral blood mononuclear cells (50.106/mouse), either with concomitant BiP (100 μg/mouse) or with PBS/vehicle, were injected into the peritoneal cavity of SCID mice. After 11d the cells were flushed from the peritoneal cavity and investigated by flow cytometry. (A) Intracellular expression of IL-4 was measured 3 h post ex vivo stimulation with PMA (10 ng/ml) and ionomycin (1 μg/ml) in the presence of monensin. (B) surface expression of HLA-DR CD4+ cells. The mean and standard deviation of 3 experiments are shown
The biomarkers were investigated in two situations: 1) when 50.10^6 human peripheral blood mononuclear cells were injected intraperitoneally, with or without BiP (100 μg), into a mouse and the cells were harvested from the peritoneum 11 days later; or (2) BiP (200 μg) was injected intravenously into a mouse and the spleens and lymph nodes removed 11 days later.
In each of three experiments, two/three mice were injected either with BiP treated human peripheral blood mononuclear cells (hPBMC) (50.10^6/mouse) and or untreated hPBMC. The mice were sacrificed 11 days later, the peritoneal cavity washed out and the cells collected for immunofluorescence and flow cytometric analysis. The cells were particularly stained for TH2 markers and intracellular anti-inflammatory cytokines.
SCID mice were given an intraperitoneal injection of human PBMC (50.106/mouse) in the presence or absence of BiP (100 μg/mouse) and sacrificed 11d later when the peritoneum was washed out with PBS and the remaining cells collected for analysis. Cells were examined for the intracellular presence of IL-4 or IFNγ and for cell surface molecules such as HLA-DR and CD86.

[2] = system: IL-8 gene; test: Affymetrix gene array of BiP treated monocytes; assay type: cell-based, human; settings: monocytes cultured with BiP for 24 h compared with unstimulated monocytes
Text: This was confirmed in two Affymetrix™ gene arrays and also in an inflammatory cytokine gene array.
The transcription profiles of the BiP stimulated and unstimulated MO were generated using the Human GeneChip U95Av2 which simultaneously measures 12500 gene transcripts. To identify genes differentially expressed in the presence of BiP, comparisons were made between the transcription profiles obtained from the MO using the analysis software dChip version 1.2 (32).

[3] = system: T cells; test: Regulatory markers on T cells co-cultured with BiP-treated dendritic cells; assay type: cell-based, human
Experimental: FIG. 11: Co-culture of T cells with BiP-treated dendritic cells (DC) upregulates regulatory markers. […] Mean ±standard deviation of three experiments is shown.
Intracellular staining was carried out with fixed cells incubated with 1% paraformaldehyde in IF buffer for 5 minutes at room temperature. The cells were washed twice with IF buffer containing 0.3% saponin for permeabilization. 0.3% saponin was then present in all IF buffer used thereafter. CTLA-4/CD152 (BD), FoxP3 (eBioscience) and indolamine 2,3-dioxygenase (Santa Cruz) and cytokines required intracellular staining. Antibodies were added at the pre-determined optimal concentration for 20 mins and then the cells were washed twice with IF buffer and analysed. Isotype controls, IgG1 and IgG2a (Becton Dickinson, Oxford, UK) were used in parallel. Cells were analysed on a FACScan cytometer using Cellquest software (Becton Dickinson, Oxford, UK).
T cells were purified from peripheral blood mononuclear cells and set up in culture with either allogeneic or autologous dendritic cells, which had been washed and irradiated, at a ratio of 10 T cells:1 DC. The cells were co-cultured in a 24 well plate in 1 ml/well, in RPMI 1640 supplemented with 10% foetal calf serum, for 4 days then the T cells were removed and washed before being investigated for the presence of T regulatory cells (see below)
Immunofluorescent staining was performed, as described previously (39), on DC harvested at day 7, T cells after 4 days co-culture with DC. Saturating concentrations of fluorescein isothiocyanate (FITC)-, phycoerythrin (PE) or peridium chlorophyll (Per-CP)-conjugated mAb were added recognizing CD14, CD86, CD80, HLA-DR, CD11c, CD1a, CD83, CD85j, IL-10 receptor; purity of the negatively selected MO and T cells was checked using CD3, CD4, CD14, CD20 and CD57 (all from Becton Dickinson/PharMingen (BD), Oxford, UK). Intracellular staining was carried out following fixation of cells with 1% paraformaldehyde for 5 minutes. Cells were then washed with immunofluorescence buffer (PBS/0.1% BSA/0.05% azide) containing 0.3% saponin. 0.3% saponin was then present in all solutions thereafter. CD152/CTLA-4 (BD, Oxford UK) and IDO (Santa Cruz, Autogen Bioclear, UK) were intracellular stains. Isotype controls, IgG1 and IgG2a (BD, Oxford, UK) were used in parallel. Cells were analysed on a FACScan/FACScalibur cytometers using Cellquest software (BD, Oxford, UK).

[4] = Example 4, hPBMC recovered from peritoneum after 11 days

Substance: BiP: 78 kD endoplasmic reticulum chaperone protein as disclosed in WO 00/21995; recombinant human protein
- cells with intracellular IFNγ [1, 4]: 23.5±4%
- cells with intracellular IL-4 [1, 4]: 16.2±0.5%
- cells with intracellular IL-5 [1, 4]: 29±7%
- intracellular IL-4 in CD4+ cells ([1]; Example 10, BiP 100 μg/mouse, 11 days, ex vivo PMA and ionomycin 3 h, n=5): 38.2±20%
- surface HLA-DR on CD4 T cells ([1]; Example 10, BiP 100 μg/mouse, 11 days, n=5): 50±6.2%
- IL-8 gene expression [2]: downregulated the IL-8 gene
- intracellular CTLA-4 in T cells in contact with mDC(BiP) ([3]; FIG. 11B): significant upregulation of intracellular CTLA-4
- T cell surface expression for CD4CD25hiCD27hi ([3]; after 4d contact with mDC(BiP), n=5): 2.5±0.2%
- intracellular CTLA-4/CD152 in T cells ([3]; after contact with BiP treated DC, n=4): 31±12
- cell surface CCR4 on T cells ([3]; after contact with mDC(BiP), n=4): 17.3±2.0%
